# Measurements as given in patent publication US12545900B2, “CGAS/DNCV-like nucleotidyltransferases and uses thereof” (Dana-Farber Cancer Institute, Inc., priority 2018, dated 2026).
# “Also recorded” adds a separate entry of the source.
# Experiments:
# [1] = molecular target: T1, RECON (Mus musculus, UniProt Q8VC28); test: RECON enzyme assay (oxidation of NADPH cosubstrate); type: biochemical; settings: nucleotide 50-0.05 μM
# T1 construct: 6xHis-SUMO2 (N, cleaved yes); made in house; host or cells: E. coli BL21 CodonPlus (DE3)-RIL
# T1 sequence (Q8VC28 1-323): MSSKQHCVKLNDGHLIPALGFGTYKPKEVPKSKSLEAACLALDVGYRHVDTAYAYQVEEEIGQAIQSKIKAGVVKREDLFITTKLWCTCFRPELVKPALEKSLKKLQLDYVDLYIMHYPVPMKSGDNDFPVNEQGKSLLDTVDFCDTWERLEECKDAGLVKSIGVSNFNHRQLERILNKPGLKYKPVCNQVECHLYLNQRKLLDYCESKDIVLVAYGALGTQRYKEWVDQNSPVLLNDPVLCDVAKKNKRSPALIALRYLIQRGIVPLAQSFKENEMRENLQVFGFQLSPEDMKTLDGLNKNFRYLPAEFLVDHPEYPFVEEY
# Experimental: Activity assays were performed as previously described (McFarland et al. (2017) Immunity 46:433-445). Briefly, a 2-fold dilution series of nucleotide from 50-0.05 μM was incubated in 1×PBS with 200 μM NADPH (cosubstrate) and 25 μM 9,10-Phenanthrenequinone (substrate). The reactions were started with the addition of RECON to a final concentration of 0.5 μM and absorbance at 340 nm was monitored at 20 s intervals for 20 min. Slope of each reaction in the linear range (20-250 s) was used to calculate activity (Linear regression/straight Line analysis, Prism 7.0c). Values were normalized to reactions with zero nucleotide added, which defined 100% activity.
# [2] = molecular target: T1, RECON; test: Gel shift assay, radiolabeled nucleotide binding to RECON (native PAGE); settings: radiolabeled nucleotide, 0, 4, 20, 100 μM protein
# Experimental: (§1) Briefly, recombinant Mus musculus STING or RECON, at 4, 20, or 100 μM was incubated with radiolabeled nucleotide (≤1 μM final concentration) in gel shift buffer for final conditions of 50 mM Tris pH 7.5, 60 mM KCl, 5 mM Mg (OAc) 2, and 1 mM DTT. Experiments were prepared by combining 1 μL of [α-^32P] labeled nucleotide, 2 uL 5x gel shift buffer, 5 μL of nuclease free water, and started by addition of 2 μL of recombinant protein in storage buffer.
# (§2) After 30 min of equilibration, bound and free nucleotide were separated by 6% native PAGE in 0.5x TBE buffer. Gels were dried, and exposed to phosphorscreen prior to detection by Typhoon Trio Variable Mode Imager system (GE Healthcare). Gel shifts were quantified with ImageQuant® 5.2 and the % bound nucleotide was calculated as a proportion of total bound and free nucleotide for each lane, after subtraction of background signal. Gel shift data is representative of ≥2 independent experiments.
# [3] = molecular target: T2, Mus musculus STING (Mus musculus, UniProt Q3TBT3); test: Gel shift assay, radiolabeled nucleotide binding to STING (native PAGE); settings: radiolabeled nucleotide, 0, 4, 20, 100 μM protein
# T2 construct: 6xHis-SUMO2 (N, cleaved yes); made in house; host or cells: E. coli BL21 CodonPlus (DE3)-RIL
# T2 sequence (Q3TBT3 138-378 limits assumed): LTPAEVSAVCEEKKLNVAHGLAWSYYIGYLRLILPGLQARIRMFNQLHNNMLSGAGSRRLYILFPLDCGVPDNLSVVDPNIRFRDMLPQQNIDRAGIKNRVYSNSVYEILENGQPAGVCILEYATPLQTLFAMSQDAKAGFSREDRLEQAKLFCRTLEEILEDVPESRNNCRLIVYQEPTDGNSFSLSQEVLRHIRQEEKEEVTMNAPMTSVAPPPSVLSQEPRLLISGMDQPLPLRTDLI
# Experimental: as §1, §2
# [4] = system: interferon-β reporter in HEK293T cells expressing Mus musculus STING; test: Cellular assay for interferon-β induction (in-cell STING reporter assay); settings: HEK293T cells transfected with plasmid overexpressing the synthesizing enzyme
# [5] = molecular target: T3, CapE (Escherichia coli, UniProt Q6XGD4); test: Phospholipase assay (EnzChek Phospholipase A1), CapE; type: biochemical, E. coli; settings: 0.1, 1, and 10-fold molar ratios of nucleotide to phospholipase
# T3 construct: made in house; host or cells: E. coli BL21 CodonPlus (DE3)-RIL
# T3 sequence (Q6XGD4 whole entry): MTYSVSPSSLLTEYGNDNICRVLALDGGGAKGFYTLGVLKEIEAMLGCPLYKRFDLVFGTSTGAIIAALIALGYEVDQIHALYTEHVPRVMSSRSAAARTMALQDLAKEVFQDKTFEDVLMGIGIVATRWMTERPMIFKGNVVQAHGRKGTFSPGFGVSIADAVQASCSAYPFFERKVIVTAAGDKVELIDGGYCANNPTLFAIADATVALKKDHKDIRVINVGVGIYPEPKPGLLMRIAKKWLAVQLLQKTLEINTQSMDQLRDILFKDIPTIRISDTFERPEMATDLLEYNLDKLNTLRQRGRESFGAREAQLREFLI
# Experimental: Patatin-like lipases were assayed as previously described (Gaspar & Machner (2014) Proc. Natl. Acad. Sci. U.S.A. 111:4560-4565). Briefly, CapV and CapE were produced recombinantly and catalytic activity was measured using the EnzChek® Phospholipase A1 Assay Kit (Invitrogen) according to the manufacturer's instructions. […] Assays were monitored fluorometrically Ex=460 nm/Em=515 nm, for 60 min at ˜90 s intervals at room temperature using a Biotek Synergy plate reader. Slope of each reaction in the linear range was used to calculate activity (Linear regression/straight line analysis, Prism 7.0c). A PLA1 standard curve from 20-0.02 U was used to interpolate phospholipase activity. Emission was monitored at a gain of 100 and/or 50 in order to extend the linear range of the assay.
smiles,measurement,setting,value
"Nc1nc2c(ncn2[C@@H]2O[C@@H]3COP(=O)(O)O[C@H]4[C@@H](O)[C@H](n5cnc6c(N)ncnc65)O[C@@H]4COP(=O)(O)O[C@H]4[C@@H](O)[C@H](n5cnc6c(N)ncnc65)O[C@@H]4COP(=O)(O)O[C@H]3[C@H]2O)c(=O)[nH]1 [cAAG, 3′3′3′ tricyclic adenosine monophosphate-adenosine monophosphate-guanosine monophosphate]",inhibition of RECON enzymatic activity,[1],inhibition of RECON enzymatic activity
same,recognition/binding of nucleotide by RECON,[2],detected by RECON
same,recognition/binding of nucleotide by STING,[3],escaped STING recognition
"Nc1ncnc2c1ncn2C1OC2COP(=O)(O)OC3C(COP(=O)(O)OC2C1O)OC(n1ccc(=O)[nH]c1=O)C3O (stereo not shown) [cUMP-AMP, 3′3′ cyclic uridine monophosphate-adenosine monophosphate]",inhibition of RECON enzymatic activity,[1],"inhibited RECON function, albeit with a reduced potency compared to the previously reported inhibition by c-di-AMP and 3′3′ cGAMP"
same,recognition/binding of nucleotide by RECON,[2],bound to cUMP-AMP; also recorded: detected by RECON
same,activation of STING-dependent type I interferon (IFN-β reporter),[4],failed to activate STING-dependent type I interferon in cells
same,activation of CapE phospholipase activity,[5],CapE as a direct cUMP-AMP receptor
